Data published in patent US8754190B2, “Controlled release from macromolecular conjugates” (Prolynx LLC, priority 2010, dated 2014).

What was measured:
[1] = Hydrolysis of carbamate in 50% human serum; format: in vitro ADME; conditions: after 1 week at 37° C.
Text: In general, compared to C—H, a) electron withdrawing groups at the beta position increase the rate; b) alkyl groups at the alpha position increase the rate; and c) aryl moieties at the alpha position decrease the rate.

[2] = Release of Nε-2,4-dinitrophenyl-L-lysine from model linker carbamates (β-eliminative cleavage), HPLC; format: physicochemical; conditions: after 5 days at 37° C. and pH 7.4; no observable release, below estimated detection limit
Protocol: A series of model linker scaffolds having a range of functional groups as potential pKa modulators (substituted aromatics, ketones, nitriles, sulfones) were designed, prepared and linked via carbamate bonds to Ne-2,4-dinitrophenyl-L-lysine (Ne-DNP-Lys) for evaluation of release rates. DNP-Lys was chosen as the released moiety as it is water soluble and is a strong chromophore to permit HPLC-UV analysis.
The rates of release of Nε-2,4-dinitrophenyl-L-lysine from these compounds were determined at pH 7.4 or pH 8.3, 37° C., by HPLC analysis. Kinetic analyses of the release reactions were performed by HPLC (C18; linear methanol/water+0.5% HOAc gradient) using a UV/vis monitor at 350 nm. The areas under the Lys(DNP) (“P”) and starting material (“S”) peaks were integrated to determine extent of reaction (“R”) as R=P/(S+P). Reaction rates were calculated from the slope the line obtained by linear regression analysis of a plot of ln(1−R) versus time.

[3] = pH 7.4
[4] = pH 7.4; remark: listed apart in the source
Protocol: Kinetics for release of N-(6-(2,4-dinitrophenyl)aminohexanoyl)-serine from O—(N-(9-fluorenylmethoxycarbonyl-N-phenyl)aminomethyl)-serine in 0.1 M HEPES buffer, 15 mM NaCl, pH 7.40, 37° C. are shown in FIG. 4.

## O=C(N[C@@H](CCCCNc1ccc([N+](=O)[O-])cc1[N+](=O)[O-])C(=O)O)OCc1ccccc1 [O-benzyl-N—(Nε-2,4-dinitrophenyl-L-lysine)-carbamate]
[1]
  hydrolysis in 50% human serum: no detectable hydrolysis
[2]
  release of Nε-2,4-dinitrophenyl-L-lysine (cleavage): < 0.25%

## O=C(O)[C@H](CSCN(C(=O)OCC1c2ccccc2-c2ccccc21)c1ccccc1)Nc1ccc([N+](=O)[O-])cc1[N+](=O)[O-] [Example 11C, S—(N-(9-Fluorenylmethoxycarbonyl-N-Phenylamino)Methyl)N-(2,4-Dinitrophenyl)-Cysteine]
[3]
  T1/2 of release of N-(2,4-dinitrophenyl)-cysteine: 100 h

## O=C(CCCCCNc1ccc([N+](=O)[O-])cc1[N+](=O)[O-])N[C@@H](COCN(C(=O)OCC1c2ccccc2-c2ccccc21)c1ccccc1)C(=O)O [Example 11B]
[4]
  T1/2 of release of N-(6-(2,4-dinitrophenyl)aminohexanoyl)-serine: 16.7 days
